We go through five molecules from patent EP3868759A1, “2,3,5-SUBSTITUTED PYRROLO[2,3-B]PYRIDINES AS ERBB MODULATORS USEFUL FOR TREATING CANCER” (PearlRiver Bio GmbH, priority 2020, dated 2021).

The subject of one experiment is EGFR L858R T790M Ba/F3. As to the kind of experiment: CellTiter-Glo cell viability, EGFR L858R T790M Ba/F3. The class given is cell-based. Conditions: Mus musculus, BaF3, 72 h, read-out: EGFR L858R T790M Ba/F3 CTG IC50 /. Here is the method:
(§1) The CellTiter-Glo Luminescent Cell Viability Assay (Promega) is a homogeneous method of determining the number of viable cells in culture. It is based on quantification of ATP, indicating the presence of metabolically active cells. Cells are seeded on day 1 at cell numbers that assure assay linearity and optimal signal intensity. After incubation for 24h in humidified chambers at 37°C and 5% CO2, compounds in DMSO are added at different concentrations. Cells are further incubated for 72 h at 37°C and 5% CO2. Cells treated with the compound vehicle DMSO are used as positive controls and cells treated with 10 µM Staurosporine serve as negative controls. At day 5 the CellTiter Glo Reagent is prepared according to the instructions of the kit (Promega Inc.): Reagent is mixed 1:1 with cell culture medium. Thereon, mixture and assay plates are equilibrated at room temperature for 20 min. Equal volumes of the reagent-medium-mixture is added to the volume of culture medium present in each well. The plates are mixed at ∼200 rpm for 2 minutes on an orbital shaker. The microplates are then incubated at room temperature for 10 minutes for stabilization of the luminescent signal. Following incubation the luminescence is recorded on a Victor microplate reader (Perkin Elmer) using a 200 ms integration time. The data is then analyzed with Excel using the XLFIT Plugin (dose response Fit 205) for IC50-determination. As quality control the Z'-factor is calculated from 16 positive and negative control values. Only assay results showing a Z'-factor ≥ 0.5 are used for further analysis.
For orientation: Cellular ATP, detected with luciferase, serves as a proxy for viable cell number.

A further experiment deals with A431. As to the kind of experiment: CellTiter-Glo cell viability, A431. As to conditions: Homo sapiens, A-431, 72 h, read-out: A431 CTG IC50. The class given is cell-based. A digest of the protocol:
(§2)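 After seeding at densities within the linear range and 24 h recovery, cells receive compound and grow a further 72 h at 37°C. ATP luminescence then reports viability, and IC50 is fitted from the concentration-response data.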

Another experiment deals with EGFR vIII Ba/F3. As to the kind of experiment: CellTiter-Glo cell viability, EGFR vIII Ba/F3. As to conditions: Mus musculus, BaF3, 72 h, read-out: EGFR vIII Ba/F3 CTG IC50 /. The class given is cell-based. The method, boiled down: as §2
Experiment [1] concerns Her2 Exon 20 InsYVMA Ba/F3. The experiment is described as follows: CellTiter-Glo cell viability, Her2 Exon 20 InsYVMA Ba/F3. The class given is cell-based. Conditions: Mus musculus, BaF3, 72 h, read-out: Her2 Exon 20 InsYVMA Ba/F3 CTG IC50. A digest of the protocol:
as §2

Experiment [2] concerns EGFR Exon 20 InsNPH Ba/F3. The experiment is described as follows: CellTiter-Glo cell viability, EGFR Exon 20 InsNPH Ba/F3. Type of experiment: cell-based. Conditions: Mus musculus, BaF3, 72 h, read-out: EGFR Exon 20 InsNPH Ba/F3 CTG IC50. A digest of the protocol:
as §2

Another experiment addresses T1, HER2 INS YVMA (Homo sapiens, UniProt P04626, INS775YVMA).
T1 construct: purchased DPF
The experiment is described as follows: Lance Kinase Activity Assay, Her2 Exon 20 InsYVMA. As to conditions: biochemical Lance assay. A digest of the protocol: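 TR-FRET (LANCE) assay: HER2 ex20 YVMA kinase phosphorylates ULight-peptide; compounds in 8-point 1:3 dilutions from 10 mM DMSO stock; ATP-started, 1 h at room temperature, stopped with EDTA plus Eu-anti-phosphopeptide antibody, 1 h more. Read 665/615 nm emission; IC50 from sigmoidal dose-response curves.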

For a further experiment, the system named is Cuto-17. The experiment is described as follows: CellTiter-Glo cell viability, Cuto-17. Type of experiment: cell-based. As to conditions: CUTO17, 72 h, read-out: Cuto-17 CTG IC50. Here is the method:
as §1

Another experiment deals with EGFR L858R (Homo sapiens, UniProt P00533, L858R). The experiment is described as follows: Lance assay, EGFR L858R. As to conditions: biochemical Lance assay.
The test system of the next experiment is EGFR L858R Ba/F3. As to the kind of experiment: CellTiter-Glo cell viability, EGFR L858R Ba/F3. The class given is cell-based. Conditions: Mus musculus, BaF3, 72 h, read-out: EGFR L858R Ba/F3 CTG IC50 /. Here is the method: as §1
The target of the next experiment is EGFR wt (Homo sapiens, UniProt P00533). The experiment is described as follows: Lance assay, EGFR wt. As to conditions: biochemical Lance assay.
The test system of a further experiment is H1975. As to the kind of experiment: CellTiter-Glo cell viability, H1975. The class given is cell-based. As to conditions: Homo sapiens, NCI-H1975, 72 h, read-out: H1975 CTG IC50. Here is the method:
as §1

In the next experiment the target is EGFR T790M L858R (Homo sapiens, UniProt P00533, L858R/T790M). The experiment is described as follows: Lance assay, EGFR T790M L858R. Conditions: biochemical Lance assay.
In another experiment the target is EGFR (del746-750) (Homo sapiens, UniProt P00533, DEL746-750). As to the kind of experiment: Lance assay, EGFR (del746-750). Conditions: biochemical Lance assay.
Chain of EGFR (del746-750) (P00533 with tags, fused parts or gaps DEL746-750): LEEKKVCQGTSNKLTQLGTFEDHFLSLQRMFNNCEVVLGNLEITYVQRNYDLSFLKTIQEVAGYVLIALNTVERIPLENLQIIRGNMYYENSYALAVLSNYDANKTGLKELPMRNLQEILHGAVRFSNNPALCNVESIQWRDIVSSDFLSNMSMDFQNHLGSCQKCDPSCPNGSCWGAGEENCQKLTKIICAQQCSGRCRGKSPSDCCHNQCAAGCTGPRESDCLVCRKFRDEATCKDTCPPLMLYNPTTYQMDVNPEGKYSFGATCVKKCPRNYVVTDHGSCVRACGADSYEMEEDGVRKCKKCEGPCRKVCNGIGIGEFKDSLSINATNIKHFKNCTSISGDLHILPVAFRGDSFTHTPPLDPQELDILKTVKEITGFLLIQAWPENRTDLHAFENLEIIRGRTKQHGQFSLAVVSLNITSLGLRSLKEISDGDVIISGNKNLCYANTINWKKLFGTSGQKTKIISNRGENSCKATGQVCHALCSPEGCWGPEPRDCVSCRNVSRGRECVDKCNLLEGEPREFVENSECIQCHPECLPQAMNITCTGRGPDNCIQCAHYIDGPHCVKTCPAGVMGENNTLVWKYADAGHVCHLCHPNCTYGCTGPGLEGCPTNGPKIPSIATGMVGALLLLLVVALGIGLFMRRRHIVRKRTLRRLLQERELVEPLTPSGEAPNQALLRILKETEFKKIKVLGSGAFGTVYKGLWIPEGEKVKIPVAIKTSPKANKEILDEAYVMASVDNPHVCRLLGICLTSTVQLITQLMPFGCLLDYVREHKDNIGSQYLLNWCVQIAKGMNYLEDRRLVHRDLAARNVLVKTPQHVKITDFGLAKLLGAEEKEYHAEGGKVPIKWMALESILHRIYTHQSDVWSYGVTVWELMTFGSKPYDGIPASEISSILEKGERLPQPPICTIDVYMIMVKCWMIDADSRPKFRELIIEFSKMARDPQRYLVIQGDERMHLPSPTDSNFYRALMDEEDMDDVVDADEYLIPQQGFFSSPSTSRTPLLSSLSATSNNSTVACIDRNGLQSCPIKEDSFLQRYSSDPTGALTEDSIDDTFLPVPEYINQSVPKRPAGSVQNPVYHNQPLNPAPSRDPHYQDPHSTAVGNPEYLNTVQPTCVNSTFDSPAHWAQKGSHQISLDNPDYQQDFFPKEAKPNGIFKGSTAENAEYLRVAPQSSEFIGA

Chain of EGFR wt (P00533 25-1210): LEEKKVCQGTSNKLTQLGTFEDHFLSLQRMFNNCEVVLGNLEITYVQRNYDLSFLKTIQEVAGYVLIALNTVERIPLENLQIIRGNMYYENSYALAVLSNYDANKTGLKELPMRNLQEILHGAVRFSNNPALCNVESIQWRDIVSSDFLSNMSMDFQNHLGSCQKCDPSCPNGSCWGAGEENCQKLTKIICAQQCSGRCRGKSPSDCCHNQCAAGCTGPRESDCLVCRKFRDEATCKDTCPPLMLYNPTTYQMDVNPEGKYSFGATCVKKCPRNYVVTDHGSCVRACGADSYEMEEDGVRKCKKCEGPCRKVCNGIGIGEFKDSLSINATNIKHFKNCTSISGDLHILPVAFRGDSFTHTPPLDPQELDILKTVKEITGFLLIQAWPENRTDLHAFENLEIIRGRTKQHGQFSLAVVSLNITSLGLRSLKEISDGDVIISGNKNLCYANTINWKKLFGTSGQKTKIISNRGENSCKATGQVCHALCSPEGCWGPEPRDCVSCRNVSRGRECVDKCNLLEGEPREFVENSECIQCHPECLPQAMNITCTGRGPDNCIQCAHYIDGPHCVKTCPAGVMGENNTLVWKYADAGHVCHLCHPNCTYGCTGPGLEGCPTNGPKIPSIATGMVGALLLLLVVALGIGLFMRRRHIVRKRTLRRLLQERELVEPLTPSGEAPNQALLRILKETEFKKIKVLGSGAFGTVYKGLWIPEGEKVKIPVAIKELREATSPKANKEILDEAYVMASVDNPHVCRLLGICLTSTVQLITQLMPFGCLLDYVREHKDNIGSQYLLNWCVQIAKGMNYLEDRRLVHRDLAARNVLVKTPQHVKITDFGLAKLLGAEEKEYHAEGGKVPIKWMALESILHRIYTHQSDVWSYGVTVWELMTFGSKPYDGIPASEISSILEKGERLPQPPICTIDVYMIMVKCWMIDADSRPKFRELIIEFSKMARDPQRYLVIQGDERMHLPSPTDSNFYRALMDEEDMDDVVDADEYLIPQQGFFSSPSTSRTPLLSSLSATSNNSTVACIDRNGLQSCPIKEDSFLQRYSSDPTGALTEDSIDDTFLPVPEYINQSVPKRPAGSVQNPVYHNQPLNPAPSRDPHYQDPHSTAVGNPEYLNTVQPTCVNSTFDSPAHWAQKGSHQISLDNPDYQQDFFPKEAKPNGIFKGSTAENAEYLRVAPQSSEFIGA
Chain of EGFR T790M L858R (P00533 25-1210 T790M/L858R): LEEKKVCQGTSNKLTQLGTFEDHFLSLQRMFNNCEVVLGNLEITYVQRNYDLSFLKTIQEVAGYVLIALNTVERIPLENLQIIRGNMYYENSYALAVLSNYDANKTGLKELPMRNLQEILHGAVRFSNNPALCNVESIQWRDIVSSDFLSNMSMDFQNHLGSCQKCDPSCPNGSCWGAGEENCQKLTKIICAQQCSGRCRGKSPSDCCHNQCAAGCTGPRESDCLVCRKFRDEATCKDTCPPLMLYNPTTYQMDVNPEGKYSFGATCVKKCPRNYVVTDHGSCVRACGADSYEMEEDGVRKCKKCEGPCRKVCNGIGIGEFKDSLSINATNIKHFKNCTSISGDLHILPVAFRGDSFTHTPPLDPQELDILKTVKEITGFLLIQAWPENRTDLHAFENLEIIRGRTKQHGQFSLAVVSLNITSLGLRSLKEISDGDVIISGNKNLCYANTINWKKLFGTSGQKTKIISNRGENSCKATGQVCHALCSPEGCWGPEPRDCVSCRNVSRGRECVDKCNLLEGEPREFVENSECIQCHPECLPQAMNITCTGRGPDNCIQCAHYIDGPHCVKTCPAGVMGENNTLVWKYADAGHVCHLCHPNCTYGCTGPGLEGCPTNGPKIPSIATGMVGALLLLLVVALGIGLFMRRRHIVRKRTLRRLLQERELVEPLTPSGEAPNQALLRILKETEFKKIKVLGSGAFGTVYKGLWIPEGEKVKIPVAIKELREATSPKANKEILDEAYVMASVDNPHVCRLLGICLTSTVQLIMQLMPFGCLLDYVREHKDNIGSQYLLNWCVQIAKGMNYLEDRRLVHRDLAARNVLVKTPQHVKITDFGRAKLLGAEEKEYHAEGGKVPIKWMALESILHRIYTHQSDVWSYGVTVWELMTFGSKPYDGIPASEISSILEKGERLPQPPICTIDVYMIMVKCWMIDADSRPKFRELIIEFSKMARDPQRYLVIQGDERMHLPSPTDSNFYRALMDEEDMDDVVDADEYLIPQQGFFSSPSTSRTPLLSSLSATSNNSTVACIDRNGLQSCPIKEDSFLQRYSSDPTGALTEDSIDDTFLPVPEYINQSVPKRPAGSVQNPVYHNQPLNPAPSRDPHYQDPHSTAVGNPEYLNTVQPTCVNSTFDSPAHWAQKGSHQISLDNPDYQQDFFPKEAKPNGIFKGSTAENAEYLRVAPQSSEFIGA
T1 sequence (P04626 with tags, fused parts or gaps INS775YVMA): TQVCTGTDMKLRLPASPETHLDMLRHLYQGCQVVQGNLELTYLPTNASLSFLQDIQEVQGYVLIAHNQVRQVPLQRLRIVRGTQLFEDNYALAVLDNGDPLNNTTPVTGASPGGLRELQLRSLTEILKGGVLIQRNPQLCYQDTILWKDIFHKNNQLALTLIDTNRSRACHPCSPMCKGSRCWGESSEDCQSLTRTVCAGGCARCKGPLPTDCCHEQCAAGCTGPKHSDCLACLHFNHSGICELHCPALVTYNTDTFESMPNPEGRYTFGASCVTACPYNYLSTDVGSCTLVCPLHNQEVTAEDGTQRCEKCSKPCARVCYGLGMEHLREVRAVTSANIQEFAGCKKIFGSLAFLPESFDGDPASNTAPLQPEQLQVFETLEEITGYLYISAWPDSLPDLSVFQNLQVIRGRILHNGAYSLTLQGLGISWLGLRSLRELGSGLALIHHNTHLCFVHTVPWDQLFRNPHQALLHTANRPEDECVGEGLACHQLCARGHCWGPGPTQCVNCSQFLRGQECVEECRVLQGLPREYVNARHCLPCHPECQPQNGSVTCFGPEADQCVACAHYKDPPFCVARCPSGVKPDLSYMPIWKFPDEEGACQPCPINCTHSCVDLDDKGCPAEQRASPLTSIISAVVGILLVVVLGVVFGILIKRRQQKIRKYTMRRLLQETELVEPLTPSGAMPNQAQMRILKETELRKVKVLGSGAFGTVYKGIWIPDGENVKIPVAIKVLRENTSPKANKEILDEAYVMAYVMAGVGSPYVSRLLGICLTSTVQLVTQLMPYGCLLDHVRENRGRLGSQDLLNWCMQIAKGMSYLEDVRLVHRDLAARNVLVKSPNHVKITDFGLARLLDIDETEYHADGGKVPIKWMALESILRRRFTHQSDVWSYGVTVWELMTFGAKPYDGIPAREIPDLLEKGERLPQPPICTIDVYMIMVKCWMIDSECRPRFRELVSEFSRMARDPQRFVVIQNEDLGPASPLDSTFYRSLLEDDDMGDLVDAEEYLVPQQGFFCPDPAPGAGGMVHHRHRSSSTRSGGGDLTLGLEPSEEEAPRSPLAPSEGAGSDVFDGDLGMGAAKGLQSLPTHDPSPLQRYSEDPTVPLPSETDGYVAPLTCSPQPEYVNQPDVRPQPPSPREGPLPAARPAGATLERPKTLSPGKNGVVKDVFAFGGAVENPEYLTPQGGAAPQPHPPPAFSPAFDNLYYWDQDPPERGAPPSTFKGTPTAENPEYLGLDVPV

Turning to `C=CC(=O)Nc1cc(-c2c(-c3cnn(C)c3)[nH]c3ncc(C(=O)OC(C)C)cc23)ccc1C` [Example 1, Isopropyl 3-(3-acrylamido-4-methylphenyl)-2-(1-methyl-1H-pyrazol-4-yl)-1H-pyrrolo[2,3-b]pyridine-5-carboxylate 2,2,2-trifluoroacetate], the IC50 with EGFR L858R T790M Ba/F3 was not above 50 nM; in the experiment with A431, 1000 to 10000 nM; in the experiment on EGFR vIII Ba/F3, 100 to 500 nM; in experiment [1] it was 100 to 500 nM; in experiment [2], 100 to 500 nM; on HER2 INS YVMA it was 50 to 100 nM. Moreover, the IC50 in the experiment with Cuto-17 is 500 to 1000 nM; against EGFR L858R, not above 50 nM; in the experiment with EGFR L858R Ba/F3 it was not above 50 nM; on EGFR wt, not above 50 nM; in the experiment on H1975, 500 to 1000 nM; against EGFR T790M L858R, not above 50 nM. The molecule also returned an IC50 against EGFR (del746-750) not above 50 nM.
In the case of `C=CC(=O)Nc1cc(-c2c(-c3cnn(C)c3)[nH]c3ncc(OCC(C)C)cc23)ccc1C` [Example 4, N-(5-(5-isobutoxy-2-(1-methyl-1H-pyrazol-4-yl)-1H-pyrrolo[2,3-b]pyridin-3-yl)-2-methylphenyl)acrylamide 2,2,2-trifluoroacetate], the IC50 in the experiment on EGFR L858R T790M Ba/F3 was not above 50 nM; in the experiment with A431, 1000 to 10000 nM; in the experiment on EGFR vIII Ba/F3, not above 50 nM; in [1], 100 to 500 nM; in experiment [2], 100 to 500 nM; against HER2 INS YVMA, 50 to 100 nM. For the same molecule, the IC50 with Cuto-17 was 100 to 500 nM; against EGFR L858R it was not above 50 nM; in the experiment with EGFR L858R Ba/F3, not above 50 nM; against EGFR wt, not above 50 nM; in the experiment with H1975, 100 to 500 nM; against EGFR T790M L858R, 50 to 100 nM. The same molecule came in with an IC50 against EGFR (del746-750) not above 50 nM.
Regarding `C=CC(=O)Nc1cc(-c2c(-c3cnn(CC)c3)[nH]c3ncc(C(=O)OC(C)C)cc23)cc(F)c1C` [Example 5, isopropyl 3-(3-acrylamido-5-fluoro-4-methylphenyl)-2-(1-ethyl-1 H-pyrazol-4-yl)-1H-pyrrolo[2,3-b]pyridine-5-carboxylate], the IC50 in the experiment with EGFR L858R T790M Ba/F3 is not above 50 nM; with A431 it was 1000 to 10000 nM; with EGFR vIII Ba/F3, 100 to 500 nM; in experiment [1], 50 to 100 nM; in experiment [2], 50 to 100 nM; on HER2 INS YVMA it was 50 to 100 nM. For the same molecule, the IC50 with Cuto-17 is 100 to 500 nM; against EGFR L858R it was not above 50 nM; in the experiment on EGFR L858R Ba/F3 it was not above 50 nM; against EGFR wt it was not above 50 nM; in the experiment with H1975, 500 to 1000 nM; on EGFR T790M L858R, not above 50 nM. This molecule also came in with an IC50 against EGFR (del746-750) not above 50 nM.
As to `C=CC(=O)Nc1cc(-c2c(-c3cnn(C)c3)[nH]c3ncc(C(=O)OC(C)C)c(C)c23)ccc1C` [Example 7, isopropyl 3-(3-acrylamido-4-methylphenyl)-4-methyl-2-(1-methyl-1H-pyrazol-4-yl)-1H-pyrrolo[2,3-b]pyridine-5-carboxylate2,2,2-trifluoroacetate], the IC50 with EGFR L858R T790M Ba/F3 was in the range of 50 to 100 nM; in the experiment with A431 it was 1000 to 10000 nM; with EGFR vIII Ba/F3 it was 50 to 100 nM; in experiment [1], 100 to 500 nM; in experiment [2], 50 to 100 nM; against HER2 INS YVMA it was 100 to 500 nM. Besides, the IC50 was 100 to 500 nM in the experiment with Cuto-17; not above 50 nM against EGFR L858R; not above 50 nM in the experiment on EGFR L858R Ba/F3; not above 50 nM against EGFR wt; 100 to 500 nM with H1975; not above 50 nM against EGFR T790M L858R. In addition, the IC50 on EGFR (del746-750) was not above 50 nM.
As to `C=CC(=O)Nc1cc(-c2c(-c3cnn(CCN(C)C)c3)[nH]c3ncc(C(=O)OC(C)C)c(C)c23)ccc1C` [Example 15, isopropyl 3-(3-acrylamido-4-methylphenyl)-2-(1-(2-(dimethylamino)ethyl)-1 H-pyrazol-4-yl)-4-methyl-1 H-pyrrolo[2,3-b]pyridine-5-carboxylate], the IC50 in the experiment with EGFR L858R T790M Ba/F3 was not above 50 nM; in the experiment with A431, 1000 to 10000 nM; with EGFR vIII Ba/F3, 50 to 100 nM; in experiment [1], 100 to 500 nM; in experiment [2], 50 to 100 nM; against HER2 INS YVMA it was not above 50 nM. Also, the IC50 is 100 to 500 nM in the experiment with Cuto-17; not above 50 nM at EGFR L858R; not above 50 nM in the experiment on EGFR L858R Ba/F3; not above 50 nM on EGFR wt; 100 to 500 nM in the experiment on H1975; not above 50 nM against EGFR T790M L858R. The same molecule came in with an IC50 on EGFR (del746-750) not above 50 nM.
